Measured values published in patent publication US8030498B2, “Benzoylpyrazole compounds and herbicides containing them” (Ishihara Sangyo Kaisha, Ltd., priority 2005, dated 2011).

Tests used:
[1] = test system: greenfoxtail (Setaria viridis L.); assay: Test Example 1: foliar treatment, growth inhibition rate, greenfoxtail; type: in vivo; conditions: visually observed 17th to 23rd day after application
Excerpt: (§1) Upland field soil was put into a 1/170,000 hectare pot, and seeds of various plants were sown. When the respective plants reached predetermined leaf stage ((1) barnyardgrass (Echinochloa crus-galli L.); 0.8 to 2.5 leaf stage, (2) crabgrass (Digitaria sanguinalis L.): 0.5 to 3.0 leaf stage, (3) greenfoxtail (Setaria viridis L.): 1.0 to 3.0 leaf stage, (4) redroot pigweed (Amaranthus retroflexus L.): cotyledon stage to 2.0 leaf stage, (5) prickly sida (Sida spinosa L.): cotyledon stage to 1.1 leaf stage, (6) velvetleaf (Abutilon theophrasti MEDIC.): cotyledon stage to 1.5 leaf stage, (7) rice (Oryza sativa L.): 1.0 to 2.5 leaf stage, (8) wheat (Triticum spp.): 1.7 to 3.4 leaf stage, (9) corn (Zea mays L.): 2.0 to 3.5 leaf stage, and (10) soybean (Glycine max Merr.): primary leaf stage to 0.3 leaf stage), wettable powders or emulsifiable concentrates of the compounds of the present invention prepared in accordance with a conventional preparation method, were weighed so that the active ingredients became the prescribed amounts, and diluted with water in an amount corresponding to 500 liter per 1 hectare. 0.1 vol % of an agricultural spreader was further added to the respective diluted liquids, followed by foliar treatment with a small sprayer.
(§2) On the 17th to 23rd day after application, the state of growth of the respective plants was visually observed, and the herbicidal effect was evaluated in accordance with a growth inhibition rate (%) of 0 (equivalent to the non-treated area) to 100% (complete kill).

wheat (Triticum spp.) = assay: Test Example 1: foliar treatment, growth inhibition rate, wheat; type: in vivo; conditions: visually observed 17th to 23rd day after application
Excerpt: as §1, §2

corn (Zea mays L.) = assay: Test Example 1: foliar treatment, growth inhibition rate, corn; type: in vivo; conditions: visually observed 17th to 23rd day after application
Excerpt: as §1, §2

[2] = test system: crabgrass (Digitaria sanguinalis L.); assay: Test Example 1: foliar treatment, growth inhibition rate, crabgrass; type: in vivo; conditions: visually observed 17th to 23rd day after application
Excerpt: as §1, §2

[3] = test system: barnyardgrass (Echinochloa crus-galli L.); assay: Test Example 1: foliar treatment, growth inhibition rate, barnyardgrass; type: in vivo; conditions: visually observed 17th to 23rd day after application
Excerpt: as §1, §2

[4] = test system: redroot pigweed (Amaranthus retroflexus L.); assay: Test Example 1: foliar treatment, growth inhibition rate, redroot pigweed; type: in vivo; conditions: visually observed 17th to 23rd day after application
Excerpt: as §1, §2

[5] = test system: velvetleaf (Abutilon theophrasti MEDIC.); assay: Test Example 1: foliar treatment, growth inhibition rate, velvetleaf; type: in vivo; conditions: visually observed 17th to 23rd day after application
Excerpt: as §1, §2

rice (Oryza sativa L.) = assay: Test Example 1: foliar treatment, growth inhibition rate, rice; type: in vivo; conditions: visually observed 17th to 23rd day after application
Excerpt: as §1, §2

[6] = test system: prickly sida (Sida spinosa L.); assay: Test Example 1: foliar treatment, growth inhibition rate, prickly sida; type: in vivo; conditions: visually observed 17th to 23rd day after application
Excerpt: as §1, §2

[7] = test system: soybean (Glycine max Merr.); assay: Test Example 1: foliar treatment, growth inhibition rate, soybean; type: in vivo; conditions: visually observed 17th to 23rd day after application
Excerpt: as §1, §2

velvetleaf = assay: Test Example 2: soil application on the day after sowing, growth inhibition rate, velvetleaf; type: in vivo, Abutilon theophrasti MEDIC.; conditions: 250 g/ha active ingredient, observed on 19th to 24th day
Excerpt: (§3) Upland field soil was put into a 1/170,000 hectare pot, and seeds of various plants (barnyardgrass, crabgrass, greenfoxtail, redroot pigweed, prickly sida, velvetleaf, rice, wheat, corn and soybean) were sown. On the day after sowing, wettable powders or emulsifiable concentrates of the compounds of the present invention prepared in accordance with a conventional preparation method, were weighed so that the active ingredients became the prescribed amounts, and diluted with water in an amount corresponding to 500 liter per 1 hectare, followed by soil application with a small sprayer. On the 19th to 24th day after the application, the state of growth of the respective plants was visually observed, and the herbicidal effect was evaluated in accordance with a growth inhibition rate (%) of from 0 (equivalent to the non-treated area) to 100% (complete kill).

redroot pigweed = assay: Test Example 2: soil application on the day after sowing, growth inhibition rate, redroot pigweed; type: in vivo, Amaranthus retroflexus L.; conditions: 250 g/ha active ingredient, observed on 19th to 24th day
Excerpt: as §3

crabgrass = assay: Test Example 2: soil application on the day after sowing, growth inhibition rate, crabgrass; type: in vivo, Digitaria sanguinalis L.; conditions: 250 g/ha active ingredient, observed on 19th to 24th day
Excerpt: as §3

corn = assay: Test Example 2: soil application on the day after sowing, growth inhibition rate, corn; type: in vivo, Zea mays L.; conditions: 250 g/ha active ingredient, observed on 19th to 24th day
Excerpt: as §3

Row | SMILES | Growth inhibition rate (%) Greenfoxtail ([1]; 31 g/ha active ingredient) [%] | Growth inhibition rate (%) Wheat (wheat (Triticum spp.); 31 g/ha active ingredient) [%] | Growth inhibition rate (%) Velvetleaf (velvetleaf) [%] | Growth inhibition rate (%) redroot pigweed (redroot pigweed) [%] | Growth inhibition rate (%) Corn (corn (Zea mays L.); 31 g/ha active ingredient) [%] | Growth inhibition rate (%) Crabgrass (crabgrass) [%] | Growth inhibition rate (%) Crabgrass ([2]; 31 g/ha active ingredient) [%] | Growth inhibition rate (%) Barnyardgrass ([3]; 31 g/ha active ingredient) [%] | Growth inhibition rate (%) redroot pigweed ([4]; 31 g/ha active ingredient) [%] | Growth inhibition rate (%) Velvetleaf ([5]; 31 g/ha active ingredient) [%] | Growth inhibition rate (%) Rice (rice (Oryza sativa L.); 31 g/ha active ingredient) [%] | Growth inhibition rate (%) Prickly sida ([6]; 31 g/ha active ingredient) [%] | Growth inhibition rate (%) Corn (corn) [%] | Growth inhibition rate (%) Soybean ([7]; 31 g/ha active ingredient) [%] | further results
1 | CCSC(=O)Oc1c(C(=O)c2ccc(S(C)(=O)=O)c(CN(CC#N)C(=O)SCC)c2C)cnn1C [compound 228] |  |  |  |  |  |  |  |  |  |  |  |  |  |  | Growth inhibition rate (%) Greenfoxtail ([1]; 63 g/ha active ingredient): 40%; Growth inhibition rate (%) Wheat (wheat (Triticum spp.); 63 g/ha active ingredient): 0%; Growth inhibition rate (%) Corn (corn (Zea mays L.); 63 g/ha active ingredient): 0%; Growth inhibition rate (%) Crabgrass ([2]; 63 g/ha active ingredient): 60%; Growth inhibition rate (%) Barnyardgrass ([3]; 63 g/ha active ingredient): 98%; Growth inhibition rate (%) redroot pigweed ([4]; 63 g/ha active ingredient): 40%; Growth inhibition rate (%) Velvetleaf ([5]; 63 g/ha active ingredient): 70%; Growth inhibition rate (%) Rice (rice (Oryza sativa L.); 63 g/ha active ingredient): 0%; Growth inhibition rate (%) Prickly sida ([6]; 63 g/ha active ingredient): 40%; Growth inhibition rate (%) Soybean ([7]; 63 g/ha active ingredient): 80%
2 | COCc1c(S(C)(=O)=O)ccc(C(=O)c2cnn(C)c2OC(=O)SC)c1Cl [compound 74] | 80 | 20 | 70 | 95 | 40 | 90 | 98 | 100 | 100 | 100 | 95 | 70 | 0 | 98 | 
3 | CCOCc1c(S(C)(=O)=O)ccc(C(=O)c2cnn(C)c2OC(=O)SCC)c1C [compound 73] | 100 | 0 | 100 | 100 | 30 | 100 | 100 | 100 | 100 | 98 | 95 | 70 | 0 | 98 | 
4 | CCOCCOc1c(S(C)(=O)=O)ccc(C(=O)c2cnn(C)c2OC(=O)SCC)c1C [compound 77] | 98 | 0 | 40 | 90 | 10 | 95 | 98 | 98 | 95 | 80 | 70 | 70 | 0 | 95 | 
5 | COCCOc1c(S(C)(=O)=O)ccc(C(=O)c2cnn(C)c2OC(=O)SC(C)(C)C)c1C [compound 241] | 100 |  |  |  | 0 |  | 98 | 100 | 100 | 100 | 90 | 90 |  | 100 | 
6 | CCC(C)SC(=O)Oc1c(C(=O)c2ccc(S(C)(=O)=O)c(OCCOC)c2C)cnn1C (stereo not shown) [compound 239] | 100 |  |  |  | 0 |  | 100 | 98 |  | 100 | 85 | 80 |  | 100 | 
7 | CCSC(=O)Oc1c(C(=O)c2ccc(S(C)(=O)=O)c(CCC#N)c2C)cnn1C [compound 230] |  |  |  |  |  |  |  |  |  |  |  |  |  |  | Growth inhibition rate (%) Greenfoxtail ([1]; 63 g/ha active ingredient): 100%; Growth inhibition rate (%) Wheat (wheat (Triticum spp.); 63 g/ha active ingredient): 40%; Growth inhibition rate (%) Corn (corn (Zea mays L.); 63 g/ha active ingredient): 0%; Growth inhibition rate (%) Crabgrass ([2]; 63 g/ha active ingredient): 100%; Growth inhibition rate (%) Barnyardgrass ([3]; 63 g/ha active ingredient): 100%; Growth inhibition rate (%) redroot pigweed ([4]; 63 g/ha active ingredient): 100%; Growth inhibition rate (%) Velvetleaf ([5]; 63 g/ha active ingredient): 95%; Growth inhibition rate (%) Rice (rice (Oryza sativa L.); 63 g/ha active ingredient): 95%; Growth inhibition rate (%) Prickly sida ([6]; 63 g/ha active ingredient): 80%; Growth inhibition rate (%) Soybean ([7]; 63 g/ha active ingredient): 100%
